From the NIST ThermoML archive (doi:10.1021/je0302304)
± gives the expanded uncertainty stated by the source.

Experiment: xn = mol fraction of the nth substance listed
Details: 101.32 kPa, Liquid

COCCOC [1,2-dimethoxyethane] + CCO
mass density (288.15 K, x1 = 0.0045): 794.5 ± 0.5 kg/m3
mass density (288.15 K, x1 = 0.0086): 795.2 ± 0.4 kg/m3
mass density (288.15 K, x1 = 0.0125): 795.8 ± 0.4 kg/m3
mass density (288.15 K, x1 = 0.0165): 796.4 ± 0.4 kg/m3
mass density (288.15 K, x1 = 0.0205): 797 ± 0.4 kg/m3
mass density (288.15 K, x1 = 0.0305): 798.5 ± 0.4 kg/m3
mass density (288.15 K, x1 = 0.05): 801.3 ± 0.4 kg/m3
mass density (288.15 K, x1 = 0.1): 807.9 ± 0.4 kg/m3
mass density (288.15 K, x1 = 0.15): 814.2 ± 0.4 kg/m3
mass density (288.15 K, x1 = 0.2): 819.9 ± 0.4 kg/m3
mass density (288.15 K, x1 = 0.25): 825.2 ± 0.4 kg/m3
mass density (288.15 K, x1 = 0.3): 830.1 ± 0.4 kg/m3
mass density (288.15 K, x1 = 0.35): 834.6 ± 0.4 kg/m3
mass density (288.15 K, x1 = 0.4): 838.8 ± 0.4 kg/m3
mass density (288.15 K, x1 = 0.45): 842.7 ± 0.4 kg/m3
mass density (288.15 K, x1 = 0.5): 846.4 ± 0.4 kg/m3
mass density (288.15 K, x1 = 0.55): 849.8 ± 0.4 kg/m3
mass density (288.15 K, x1 = 0.6): 853 ± 0.4 kg/m3
mass density (288.15 K, x1 = 0.6499): 856 ± 0.4 kg/m3
mass density (288.15 K, x1 = 0.7): 858.7 ± 0.4 kg/m3
mass density (288.15 K, x1 = 0.7499): 861.3 ± 0.3 kg/m3
mass density (288.15 K, x1 = 0.7999): 863.7 ± 0.3 kg/m3
mass density (288.15 K, x1 = 0.85): 866.1 ± 0.3 kg/m3
mass density (288.15 K, x1 = 0.9): 868.3 ± 0.3 kg/m3
mass density (288.15 K, x1 = 0.9499): 870.4 ± 0.3 kg/m3
mass density (288.15 K, x1 = 1): 872.4 ± 0.3 kg/m3
mass density (298.15 K, x1 = 0.0045): 786 ± 0.5 kg/m3
mass density (298.15 K, x1 = 0.0086): 786.6 ± 0.5 kg/m3
mass density (298.15 K, x1 = 0.0125): 787.1 ± 0.5 kg/m3
mass density (298.15 K, x1 = 0.0165): 787.7 ± 0.5 kg/m3
mass density (298.15 K, x1 = 0.0205): 788.3 ± 0.5 kg/m3
mass density (298.15 K, x1 = 0.0305): 789.8 ± 0.5 kg/m3
mass density (298.15 K, x1 = 0.05): 792.5 ± 0.5 kg/m3
mass density (298.15 K, x1 = 0.1): 799 ± 0.4 kg/m3
mass density (298.15 K, x1 = 0.15): 805 ± 0.4 kg/m3
mass density (298.15 K, x1 = 0.2): 810.6 ± 0.4 kg/m3
mass density (298.15 K, x1 = 0.25): 815.7 ± 0.4 kg/m3
mass density (298.15 K, x1 = 0.3): 820.5 ± 0.4 kg/m3
mass density (298.15 K, x1 = 0.35): 824.9 ± 0.4 kg/m3
mass density (298.15 K, x1 = 0.4): 829 ± 0.4 kg/m3
mass density (298.15 K, x1 = 0.45): 832.8 ± 0.4 kg/m3
mass density (298.15 K, x1 = 0.5): 836.3 ± 0.4 kg/m3
mass density (298.15 K, x1 = 0.55): 839.6 ± 0.4 kg/m3
mass density (298.15 K, x1 = 0.6): 842.7 ± 0.4 kg/m3
mass density (298.15 K, x1 = 0.6499): 845.5 ± 0.4 kg/m3
mass density (298.15 K, x1 = 0.7): 848.2 ± 0.4 kg/m3
mass density (298.15 K, x1 = 0.7499): 850.7 ± 0.4 kg/m3
mass density (298.15 K, x1 = 0.7999): 853.1 ± 0.4 kg/m3
mass density (298.15 K, x1 = 0.85): 855.4 ± 0.4 kg/m3
mass density (298.15 K, x1 = 0.9): 857.5 ± 0.4 kg/m3
mass density (298.15 K, x1 = 0.9499): 859.5 ± 0.4 kg/m3
mass density (298.15 K, x1 = 1): 861.5 ± 0.3 kg/m3
mass density (308.15 K, x1 = 0.0045): 777.3 ± 0.5 kg/m3
mass density (308.15 K, x1 = 0.0086): 777.9 ± 0.5 kg/m3
mass density (308.15 K, x1 = 0.0125): 778.4 ± 0.5 kg/m3
mass density (308.15 K, x1 = 0.0165): 779 ± 0.5 kg/m3
mass density (308.15 K, x1 = 0.0205): 779.6 ± 0.5 kg/m3
mass density (308.15 K, x1 = 0.0305): 781 ± 0.5 kg/m3
mass density (308.15 K, x1 = 0.05): 783.6 ± 0.5 kg/m3
mass density (308.15 K, x1 = 0.1): 790 ± 0.5 kg/m3
mass density (308.15 K, x1 = 0.15): 795.8 ± 0.4 kg/m3
mass density (308.15 K, x1 = 0.2): 801.2 ± 0.4 kg/m3
mass density (308.15 K, x1 = 0.25): 806.1 ± 0.4 kg/m3
mass density (308.15 K, x1 = 0.3): 810.7 ± 0.4 kg/m3
mass density (308.15 K, x1 = 0.35): 815 ± 0.4 kg/m3
mass density (308.15 K, x1 = 0.4): 818.9 ± 0.4 kg/m3
mass density (308.15 K, x1 = 0.45): 822.6 ± 0.4 kg/m3
mass density (308.15 K, x1 = 0.5): 826 ± 0.4 kg/m3
mass density (308.15 K, x1 = 0.55): 829.2 ± 0.4 kg/m3
mass density (308.15 K, x1 = 0.6): 832.1 ± 0.4 kg/m3
mass density (308.15 K, x1 = 0.6499): 834.9 ± 0.4 kg/m3
mass density (308.15 K, x1 = 0.7): 837.5 ± 0.4 kg/m3
mass density (308.15 K, x1 = 0.7499): 839.9 ± 0.4 kg/m3
mass density (308.15 K, x1 = 0.7999): 842.2 ± 0.4 kg/m3
mass density (308.15 K, x1 = 0.85): 844.5 ± 0.4 kg/m3
mass density (308.15 K, x1 = 0.9): 846.6 ± 0.4 kg/m3
mass density (308.15 K, x1 = 0.9499): 848.5 ± 0.4 kg/m3
mass density (308.15 K, x1 = 1): 850.4 ± 0.4 kg/m3
mass density (318.15 K, x1 = 0.0045): 768.5 ± 0.5 kg/m3
mass density (318.15 K, x1 = 0.0086): 769 ± 0.5 kg/m3
mass density (318.15 K, x1 = 0.0125): 769.6 ± 0.5 kg/m3
mass density (318.15 K, x1 = 0.0165): 770.1 ± 0.5 kg/m3
mass density (318.15 K, x1 = 0.0205): 770.7 ± 0.5 kg/m3
mass density (318.15 K, x1 = 0.0305): 772 ± 0.5 kg/m3
mass density (318.15 K, x1 = 0.05): 774.6 ± 0.5 kg/m3
mass density (318.15 K, x1 = 0.1): 780.7 ± 0.5 kg/m3
mass density (318.15 K, x1 = 0.15): 786.3 ± 0.5 kg/m3
mass density (318.15 K, x1 = 0.2): 791.5 ± 0.5 kg/m3
mass density (318.15 K, x1 = 0.25): 796.3 ± 0.4 kg/m3
mass density (318.15 K, x1 = 0.3): 800.7 ± 0.4 kg/m3
mass density (318.15 K, x1 = 0.35): 804.8 ± 0.4 kg/m3
mass density (318.15 K, x1 = 0.4): 808.7 ± 0.4 kg/m3
mass density (318.15 K, x1 = 0.45): 812.2 ± 0.4 kg/m3
mass density (318.15 K, x1 = 0.5): 815.5 ± 0.4 kg/m3
mass density (318.15 K, x1 = 0.55): 818.6 ± 0.4 kg/m3
mass density (318.15 K, x1 = 0.6): 821.5 ± 0.4 kg/m3
mass density (318.15 K, x1 = 0.6499): 824.1 ± 0.4 kg/m3
mass density (318.15 K, x1 = 0.7): 826.6 ± 0.4 kg/m3
mass density (318.15 K, x1 = 0.7499): 829 ± 0.4 kg/m3
mass density (318.15 K, x1 = 0.7999): 831.2 ± 0.4 kg/m3
mass density (318.15 K, x1 = 0.85): 833.4 ± 0.4 kg/m3
mass density (318.15 K, x1 = 0.9): 835.4 ± 0.4 kg/m3
mass density (318.15 K, x1 = 0.9499): 837.3 ± 0.4 kg/m3
mass density (318.15 K, x1 = 1): 839.2 ± 0.4 kg/m3
